How the values were obtained:
[1] = for mass density: 298.15 K, 101.33 kPa; for mass density / vapor or sublimation pressure: Liquid; for vapor or sublimation pressure: Ebulliometric method (Recirculating still); for surface tension liquid-gas: 303.15 K, Maximal bubble pressure
[2] = refractive index (Na D-line) (dimensionless); conditions: 298.15 K; 101.33 kPa; Liquid; Standard Abbe refractometry
[3] = xn = mol fraction of the nth substance listed; conditions: 303.15 K, Maximal bubble pressure

COC(C)(C)C [2-methoxy-2-methylpropane]
Conditions | mass density [kg/m3] | refractive index | surface tension liquid-gas [mN/m]
[1] | 735.45 | – | 18.7
[2] | – | 1.36766 | –

[1]
Conditions | vapor or sublimation pressure [kPa]
301.31 K | 38.06
303.21 K | 41.03
305.59 K | 45.05
308.33 K | 50.06
310.85 K | 55.05
313.2 K | 60.06
315.39 K | 65.03
317.47 K | 70.07
319.41 K | 75.05
321.27 K | 80.08
323.02 K | 85.05
324.7 K | 90.06
325.98 K | 94
326.31 K | 95.05
328.24 K | 101.34

COC(C)(C)C [2-methoxy-2-methylpropane] + C1CCCCC1
[3]
Conditions | surface tension liquid-gas [mN/m]
x1 = 0.046 | 23.39
x1 = 0.1 | 22.97
x1 = 0.205 | 22.23
x1 = 0.308 | 21.57
x1 = 0.409 | 21.03
x1 = 0.51 | 20.58
x1 = 0.614 | 20.12
x1 = 0.716 | 19.71
x1 = 0.816 | 19.34
x1 = 0.901 | 19.05
x1 = 0.947 | 18.89

COC(C)(C)C [2-methoxy-2-methylpropane] + CC(C)=O
[3]
Conditions | surface tension liquid-gas [mN/m]
x1 = 0.031 | 22.14
x1 = 0.074 | 21.76
x1 = 0.171 | 21.13
x1 = 0.272 | 20.59
x1 = 0.378 | 20.09
x1 = 0.484 | 19.75
x1 = 0.585 | 19.47
x1 = 0.681 | 19.22
x1 = 0.784 | 18.98
x1 = 0.884 | 18.74
x1 = 0.94 | 18.55

CC(C)=O [acetone]
Conditions | mass density [kg/m3] | refractive index | surface tension liquid-gas [mN/m]
[1] | 784.23 | – | 22.45
[2] | – | 1.35732 | –

Conditions | vapor or sublimation pressure [kPa]
[1], 327.16 K | 94

C1CCCCC1 [cyclohexane]
Conditions | mass density [kg/m3] | refractive index | surface tension liquid-gas [mN/m]
[1] | 773.84 | – | 24.1
[2] | – | 1.42508 | –

Conditions | vapor or sublimation pressure [kPa]
[1], 351.37 K | 94
